Patent US20220169660A1, “CYCLIC AMINO-PYRAZINECARBOXAMIDE COMPOUNDS AND USES THEREOF” (SILVERBACK THERAPEUTICS, INC., priority 2019, published 2022)

Tests used:
[1] = tested on: HEK293 SMAD2p luciferase reporter cells transfected to stably express full length human LRRC15; assay: Cell reporter assay of anti-LRRC15 antibody drug conjugates (SMAD2p luciferase); assay type: cell-based; conditions: linker-payload conjugated to anti-LRRC15 antibody; human TGFβ1 1.6 ng/ml; absolute EC50
Excerpt: The linker payloads in Table 8 were covalently attached to an anti-LRRC15 antibody. The LRRC15 antibody is the murine M25 antibody or a humanized variant thereof (see PCT Application Publication No. WO 2017/095805, incorporated herein by reference in its entirety). Conjugation to the linker-payload is via the interchain disulfides. The antibodies have either a wild-type Fc domain or a null Fc domain. The Fcnull mutations for human IgG1 are L234A, L236A, G237A, and K322A and the Fcnull mutations for murine IgG2a are L234A, L236A, G237A, K322A, and P329G; numbering by EU index.
The resultant antibody drug conjugates were tested via a cell reporter assay. HEK293 SMAD2p luciferase reporter cells transfected to stably express full length human LRRC15 were seeded in 96 well plates at 40,000 cells/well in an assay media of MEM +0.5% FBS, 1% NEAA, 1% NaPyr & 1% Pen/Strep. Conjugates and controls were added to wells in a dose titration ranging from 500 nM to 0.03 nM. After 24 hours of culture at 37° C. in a 5% CO2 environment human TGFβ1 was added (PeproTech Inc.) to a final concentration of 1.6 ng/ml followed by an additional 18 hour of culture. Luciferase Steady Glo reagent (Promega Corporation) was added as recommended by manufacturer. After incubating 10 minutes with shaking, SMAD2p activity was determined by measuring luminescence with an Envision Plate Reader (Perkin-Elmer Inc.) and an absolute EC50 was determined using Prism Software v8.01 (GraphPad Inc.).

[2] = tested on: TGFβ/SMAD Singling Pathway SBE reporter cell line; assay: TGFβ reporter assay (in vitro small molecule screening); assay type: cell-based; conditions: SBE luciferase reporter cells, TGFβ stimulation, 18 h, luminescence
Procedure: TGFβ/SMAD Singling Pathway SBE reporter cell line was obtained from BPS Bioscience. Cells were passed, expanded, and stored in liquid nitrogen as per the supplier's instructions with the exception that growth media is changed to DMEM-C with Geneticin (DMEM supplemented with 10% fetal bovine serum, 1×NEAA, 1 mM Pyruvate, 2 mM glutamine, 50 μg/mL penicillin, 50 U/mL streptomycin and 400 μg/mL of Geneticin). The assay media was MEM supplemented with […] fetal bovine serum, 1×NEAA, 1 mM Pyruvate, 50 μg/mL penicillin and 50 U/mL streptomycin.
Test samples (at desired concentrations diluted in assay media) were added to a 96-well assay plate, 20 μL per well. Reporter cells were harvested from the tissue culture flasks by incubation in small quantity of PBS at 37° C. for two minutes after the media in the flask is removed and cells rinsed with PBS. Cells were counted and diluted in the assay media at approximately 0.5×10^6 cells/mL and then 80 μL/well of cells were added to the assay plate containing the 20 μL/well of test samples (or media only), and incubated for approximately 5-6 hours at 37° C. in a 5% CO2 humidified incubator. After that time, 15 μL of TGFβ diluted to 12 ng/mL in the assay media was added to the plate. Controls included TGFβ titration (from 50 to 0 ng/mL) without inhibitors, and media only (without cells, inhibitor or TGFβ). Plates were incubated at 37° C. in a 5% CO2 humidified incubator for 18 h. Luciferase substrate solution is subsequently added at 100 μL per well, incubated in the dark at room temperature for 15 min, and luminescence is measured using a luminometer. EC50 values and curve fits were obtained using Prism (GraphPad Software).

TGFBR2 = target: T1, TGFBR2 (Homo sapiens, UniProt P37173); assay: TGFBR2 RBC enzyme assay (Reaction Biology Corp.); assay type: biochemical
T1 construct: purchased Reaction Biology Corp
T1 sequence (P37173 23-567): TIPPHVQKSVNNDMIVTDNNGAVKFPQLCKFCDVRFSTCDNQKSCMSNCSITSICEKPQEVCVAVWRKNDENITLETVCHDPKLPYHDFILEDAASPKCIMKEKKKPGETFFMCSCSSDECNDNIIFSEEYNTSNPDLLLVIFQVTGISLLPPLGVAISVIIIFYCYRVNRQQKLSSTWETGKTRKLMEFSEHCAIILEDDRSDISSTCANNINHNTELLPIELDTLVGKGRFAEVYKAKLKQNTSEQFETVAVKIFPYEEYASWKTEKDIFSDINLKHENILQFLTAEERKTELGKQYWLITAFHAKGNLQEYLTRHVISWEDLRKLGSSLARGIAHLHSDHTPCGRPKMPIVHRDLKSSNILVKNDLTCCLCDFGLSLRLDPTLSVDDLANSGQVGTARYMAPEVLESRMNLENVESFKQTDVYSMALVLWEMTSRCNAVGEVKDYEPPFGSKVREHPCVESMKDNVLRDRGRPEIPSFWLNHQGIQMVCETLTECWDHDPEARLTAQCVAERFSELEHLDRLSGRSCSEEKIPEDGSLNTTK
Procedure: Compounds of the disclosure were assayed by Reaction Biology Corp. using the TGFBR2 RBC enzyme assay.

| Compound | EC50 [1] | EC50 [2] | EC50 (TGFBR2) |
| --- | --- | --- | --- |
| 4-((S)-2-((S)-2-(6-(2,5-dioxo-2,5-dihydro-1H-pyrrol-1-yl)hexanamido)-3-methylbutanamido)-5-ureidopentanamido)benzyl (3-((2^5-amino-6-methyl-3-oxo-10-oxa-4,6-diaza-2(2,6)-pyrazina-5(3,4)-pyridina-1(1,3)-benzenacyclodecaphane-15-yl)oxy)propyl)carbamate [Compound B-16] | 1 to 1000 nM | – | – |
| CN1CCOc2ccc(OCCCN)cc2-c2cnc(N)c(n2)C(=O)Nc2cnccc21 [Compound 64, 2^5-amino-1^5-(3-aminopropoxy)-6-methyl-9-oxa-4,6-diaza-2(2,6)-pyrazina-5(3,4)-pyridina-1(1,2)-benzenacyclononaphan-3-one] | – | 1 to 1000 nM | 1 to 100 nM |
| CN1CCOc2cc(OCCCN)ccc2-c2cnc(N)c(n2)C(=O)Nc2cnccc21 [Compound 65, 2^5-amino-1^4-(3-aminopropoxy)-6-methyl-9-oxa-4,6-diaza-2(2,6)-pyrazina-5(3,4)-pyridina-1(1,2)-benzenacyclononaphan-3-one] | – | 1 to 1000 nM | 1 to 100 nM |
| CC(C)[C@H](NC(=O)CCOCCOCCOCCOCCN1C(=O)C=CC1=O)C(=O)N[C@@H](CCCNC(N)=O)C(=O)Nc1ccc(COC(=O)NCCCOc2ccc3cc2OCCCN(C)c2ccncc2NC(=O)c2nc-3cnc2N)cc1 [Compound B-61] | 1 to 1000 nM | – | – |
| CC(C)[C@H](NC(=O)CCOCCOCCOCCOCCN1C(=O)C=CC1=O)C(=O)N[C@@H](CCCNC(N)=O)C(=O)Nc1ccc(COC(=O)NCCCCc2ccc3cc2CCCCN(C)c2ccncc2NC(=O)c2nc-3cnc2N)cc1 [Compound B-62] | 1 to 1000 nM | – | – |
| CC(C)[C@H](NC(=O)CCOCCOCCOCCOCCN1C(=O)C=CC1=O)C(=O)N[C@@H](CCCNC(N)=O)C(=O)Nc1ccc(COC(=O)NCCCOc2ccc3cc2CCCCN(C)c2ccncc2NC(=O)c2nc-3cnc2N)cc1 [Compound B-63] | 1 to 1000 nM | – | – |
| CC(C)[C@H](NC(=O)CCOCCOCCOCCOCCN1C(=O)C=CC1=O)C(=O)N[C@@H](CCCNC(N)=O)C(=O)Nc1ccc(COC(=O)NCCCOc2ccc3c(c2)-c2cnc(N)c(n2)C(=O)Nc2cnccc2N(C)CCO3)cc1 [Compound B-64] | 1 to 1000 nM | – | – |
| CC(C)[C@H](NC(=O)CCOCCOCCOCCOCCN1C(=O)C=CC1=O)C(=O)N[C@@H](CCCNC(N)=O)C(=O)Nc1ccc(COC(=O)NCCCOc2ccc3c(c2)OCCN(C)c2ccncc2NC(=O)c2nc-3cnc2N)cc1 [Compound B-65] | 1 to 1000 nM | – | – |
